Data from article PMC5201249, “Agrobacterium tumefaciens estC, Encoding an Enzyme Containing Esterase Activity, Is Regulated by EstR, a Regulator in the MarR Family” (PLoS ONE, 2016).

Target: T1, EstR (Atu5211) (Agrobacterium fabrum, UniProt A9CLK2)
T1 construct: full length, non-tagged, pETBlue-2, E. coli BL21(DE3), heparin and Q-Sepharose columns
T1 sequence (A9CLK2 1-155): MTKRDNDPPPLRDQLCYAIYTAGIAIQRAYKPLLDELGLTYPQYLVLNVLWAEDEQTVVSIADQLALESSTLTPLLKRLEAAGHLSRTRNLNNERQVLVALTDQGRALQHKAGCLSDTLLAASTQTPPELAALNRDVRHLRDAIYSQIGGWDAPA
Experiment: gel mobility shift: loss of EstR binding to […]-labelled 314-bp estR-estC promoter DNA
Settings: 1 mM CHP; pH 7.0, 25 C; covalent (oxidation of sensing Cys16)

In the case of `CC(C)(OO)c1ccccc1` [CHP, cumene hydroperoxide], the “gel mobility shift: loss of EstR binding to 32P-labelled 314-bp estR-estC promot” value is reported as “prior CHP treatment of EstR prevented the repressor from binding to the promoter fragment”.
